Measurements taken from US4497811A, “1-Oxadethiacephalosporin compound and antibacterial agent containing the _same” (priority 1983, dated 1985).
Counter-ions that a name gives are not always drawn.

What was measured:
[1] = test system: gram-positive and gram-negative bacteria; assay: Antibacterial spectra in vitro (MIC), summary in words; format: cell-based; details: compared to cefroxadine
From the text: Minimum inhibitory concentrations (MIC.) (mcg/ml) as determined by serial
dilution method on agar plates

[2] = test system: Escherichia coli No. 29; assay: Curative effect by oral administration in mice infected intraperitoneally with Escherichia coli No. 29 (survival over 7 days); format: in vivo; details: for number of surviving mice: three mice in each group, 7 days
From the text: Thus, some tests were made to evaluate the curative effects of the new compound of this invention in therapeutic treatment of bacterial infections when the new compound was orally given to mice (average body weight 20 g) which had been infected with Escherichia coli No. 29. In these tests for therapeutic treatment of the bacterial infection, mice (three mice in each group) were inoculated intraperitoneally with Escherichia coli No. 29 at an inoculmn dose of 3.25×10^5 CFU/mouse and then immediately treated by oral administration of the test compound. For the subsequent 7 days, the mice were kept under observation and the number of surviving mice was counted.

Row | Structure (SMILES) | antibacterial activity against resistant strains of bacteria [1] | antibacterial spectrum (range) [1] | number of surviving mice ([2]; 0.1 mg/mouse) [mice] | number of surviving mice ([2]; 1 mg/mouse) [mice] | number of surviving mice ([2]; 5 mg/mouse) [mice] | number of surviving mice ([2]; 10 mg/mouse) [mice] | curative effects in therapeutic treatment of the bacterial infection in vivo ([2]; mice infected with Escherichia coli No. 29)
1 | CSC1=C(C(=O)O)N2C(=O)C(NC(=O)C(C(=O)O)c3ccsc3)C2OC1 (stereo not shown) [Example 4(b), 7-[2-(3-thienyl)-2-carboxyacetamido]-1-oxa-1-dethia-3-methylthio-3-cephem-4-carboxylic acid] | effective and higher antibacterial activity against resistant strains of bacteria than cefroxadine | wider range of the antibacterial spectrum than cefroxadine |  |  |  |  | 
2 | CSC1=C(C(=O)O)N2C(=O)C(NC(=O)Cc3cccs3)C2OC1 (stereo not shown) [Example 1(b), 7-(2-thienylacetamido)-1-oxa-1-dethia-3-methylthio-3-cephem-4-carboxylic acid] | effective and higher antibacterial activity against resistant strains of bacteria than cefroxadine | wider range of the antibacterial spectrum than cefroxadine |  |  |  |  | 
3 | CSC1=C(C(=O)O)N2C(=O)C(NC(=O)Cc3ccsc3)C2OC1 (stereo not shown) [Example 2(b), 7-(3-thienylacetamido)-1-oxa-1-dethia-3-methylthio-3-cephem-4-carboxylic acid] | effective and higher antibacterial activity against resistant strains of bacteria than cefroxadine | wider range of the antibacterial spectrum than cefroxadine |  |  |  |  | 
4 | CO/N=C(\C(=O)NC1C(=O)N2C(C(=O)O)=C(SC)COC12)c1csc(N)n1 (stereo not drawn) [Example 6(b), 7-[2-(2-amino-4-thiazolyl)-2-methoxyiminoacetamido]-1-oxa-1-dethia-3-methylthio-3-cephem-4-carboxylic acid trifluoroacetate (syn-isomer)] |  |  | 1 | 3 | 3 | 3 | better curative effects in therapeutic treatment of the bacterial infection in vivo
5 | CSC1=C(C(=O)O)N2C(=O)C(NC(=O)C(C(=O)O)c3cccs3)C2OC1 (stereo not shown) [Example 3(b), 7-[2-(2-thienyl)-2-carboxyacetamido]-1-oxa-1-dethia-3-methylthio-3-cephem-4-carboxylic acid] | effective and higher antibacterial activity against resistant strains of bacteria than cefroxadine | wider range of the antibacterial spectrum than cefroxadine |  |  |  |  | 
